Results as given in patent US20100240591A1, “TPP II INHIBITORS FOR USE IN THE TREATMENT OF AUTOIMMUNE AND INFLAMMATORY DISEASES AND TRANSPLANT REJECTION” (ONCOREG AB, priority 2007, published 2010).
Several values for one entry are separate records, joined by “and”; a condition that tells them apart may be missing. Equal values may be shown once. The star is where a group is joined. Cbz = O=C(OCc1ccccc1)*

Assays:
EL-4 T-lymphoma cells = experiment: Growth of EL-4 T-lymphoma cells in vivo in syngeneic C57BI/6 mice; set-up: species or system mouse; settings: 13.8 mg/kg Z-GLA-OH added to 5 mg/kg Dexamethasone, twice weekly, C57BI/6 mice (FIG. 9)
Description: To test whether our TPPII inhibitors could improve the therapeutic effects of an anti-inflammatory drug in vivo, we examined growth of the T cell-derived lymphoma line EL-4 in vivo, in mice subjected to Cortisone-treatment. We used the derivate Dexamethasone at 5 mg/kg, a dose previously reported to cause thymocyte apoptosis, and a block of T cell responses in vivo (Brewer, J. A., Kanagawa, O., Sleckman, B. P., Muglia, L. J., Thymocyte apoptosis induced by T cell activation is mediated by glucocorticoids in vivo. J. Immunol. 2002, 169:1837-43.). The glucocorticoid receptor of T cells is crucial for curtailing lethal immune activation (Brewer J A, Khor B, Vogt S K, Muglia L M, Fujiwara H, Haegele K E, Sleckman B P, Muglia L J. T-cell glucocorticoid receptor is required to suppress COX-2-mediated lethal immune activation. Nat. Med. 2003 October; 9(10):1318-22.). Inhibited activation and proliferation of T cells in vivo by Dexamethasone-treatment is a standard method to treat patients with auto-immune, inflammatory as well as transplantation rejection diseases. It is however clear that disease symptoms, as well as immune activation and proliferation, are sometimes not controlled by Dexamethasone, or other Cortisone derivatives. […]
5×10^6 EL-4 T-lymphoma cells were inoculated subcutaneously into syngeneic C57BI/6 mice. […] The size of EL-4 lymphoma tumours were measured manually twice weekly. […]

TPPII [1] = biological target: T1, TPPII (Mus musculus, UniProt Q64514); experiment: Inhibition of cleavage of AAF-AMC by enriched TPP II (fluorometric peptidase assay); assay type: biochemical; set-up: 1 ug of high molecular weight protein was used as enzyme in peptidase assays; endogenous in cells; EL-4 (mouse T lymphoma) by inference; settings: for cleavage of AAF-AMC, single reading: arbitrary but relative units; for cleavage of AAF-AMC, mean: mean of three readings
T1 sequence (Q64514 2-1262 limits assumed): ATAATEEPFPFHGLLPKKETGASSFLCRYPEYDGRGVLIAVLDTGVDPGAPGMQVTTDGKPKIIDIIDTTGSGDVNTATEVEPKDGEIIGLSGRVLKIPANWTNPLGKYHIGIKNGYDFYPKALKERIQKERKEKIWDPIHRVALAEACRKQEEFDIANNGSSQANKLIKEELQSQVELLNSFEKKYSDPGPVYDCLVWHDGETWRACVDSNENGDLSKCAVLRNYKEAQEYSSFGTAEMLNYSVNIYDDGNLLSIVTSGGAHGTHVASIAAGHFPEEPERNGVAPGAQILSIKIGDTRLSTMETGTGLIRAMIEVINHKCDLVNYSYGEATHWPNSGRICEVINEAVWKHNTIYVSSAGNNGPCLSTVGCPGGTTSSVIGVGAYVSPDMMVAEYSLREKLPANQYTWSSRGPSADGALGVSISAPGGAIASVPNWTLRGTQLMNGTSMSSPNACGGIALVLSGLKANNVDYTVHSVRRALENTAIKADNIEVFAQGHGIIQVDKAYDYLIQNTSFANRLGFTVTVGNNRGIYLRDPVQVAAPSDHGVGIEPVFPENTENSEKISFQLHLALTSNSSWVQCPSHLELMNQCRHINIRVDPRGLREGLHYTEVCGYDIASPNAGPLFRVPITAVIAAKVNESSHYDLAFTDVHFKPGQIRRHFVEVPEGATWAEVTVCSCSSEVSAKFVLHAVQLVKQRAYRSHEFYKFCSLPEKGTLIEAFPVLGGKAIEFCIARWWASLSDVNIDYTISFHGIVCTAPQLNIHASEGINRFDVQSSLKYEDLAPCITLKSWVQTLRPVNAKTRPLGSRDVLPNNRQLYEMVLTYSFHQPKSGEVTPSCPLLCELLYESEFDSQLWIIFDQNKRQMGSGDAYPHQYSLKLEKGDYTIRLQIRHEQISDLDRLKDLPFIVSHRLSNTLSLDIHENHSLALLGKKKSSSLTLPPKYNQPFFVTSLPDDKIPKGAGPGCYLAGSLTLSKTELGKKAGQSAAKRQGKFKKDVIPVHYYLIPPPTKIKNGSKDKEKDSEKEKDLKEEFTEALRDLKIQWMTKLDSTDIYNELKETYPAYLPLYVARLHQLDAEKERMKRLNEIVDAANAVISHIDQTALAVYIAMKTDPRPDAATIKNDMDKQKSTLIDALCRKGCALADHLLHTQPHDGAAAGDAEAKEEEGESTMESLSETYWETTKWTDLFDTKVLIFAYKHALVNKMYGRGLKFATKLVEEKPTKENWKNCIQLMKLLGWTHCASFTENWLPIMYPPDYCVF
Description: Protein Purification, Peptidase Assays and Analysis of DNA Fragmentation. 100×10^6 cells were sedimented and lysed by vortexing in glass beads and homogenisation buffer (50 mM Tris Base pH 7.5, 250 mM Sucrose, 5 mM MgCl2, 1 mM DTT). Cellular lysates were submitted to differential centrifugation where a supernatant from a 1 hour centrifugation at 100,000×g (cytosol) was submitted to 100,000×g centrifugation for 3-5 hours, which sedimented high molecular weight cytosolic proteins/protein complexes. The resulting pellet dissolved in 50 mM Tris Base pH 7.5, 30% Glycerol, 5 mM MgCl2, and 1 mM DTT, and 1 micro-g of high molecular weight protein was used as enzyme in peptidase assays or in Western blotting for TPP II expression. To test the activity of TPP II we used the substrate AAF-AMC (Sigma, St. Louis, Mo.), at 100 micro-M concentration in 100 micro-I of test buffer composed of 50 mM Tri Base pH 7.5, 5 mM MgCl2 and 1 mM DTT. Cleavage activity was measured by emission at 460 nm in a LS50B Luminescence Spectrometer (Perkin Elmer, Boston, Mass.). For analysis of DNA fragmentation cells were seeded in 12-well plates at 10^6 cells/ml and exposed to 25 micro-M etoposide, a DNA topoisomerase II inhibitor commonly used as an apoptosis-inducing agent, to starvation (50% PBS). Cells were seeded at 10^6 cells/ml in 12-well plates and incubated for the indicated times, usually 18-24 hours. DNA from EL-4 control and adapted cells was purified by standard chloroform extraction, and 2.5 micro-g of DNA was loaded on 1.8% agarose gel for detection of DNA from apoptotic cells.
Table 1 contains in vitro data, in fluorometric units which are arbitrary but relative, for the inhibition of cleavage of AAF-AMC (H-Ala-Ala-7-amido-4-methylcoumarin) by compounds at several concentrations. Some beneficial effect is seen for most of the compounds tested.
TPP II protein was enriched, and then a TPP II-preferred fluorogenic substrate AAF-AMC was used. 100×10^6 cells were sedimented and lysed by vortexing in glass beads and homogenisation buffer (50 mM Tris Base pH 7.5, 250 mM Sucrose, 5 mM MgCl2, 1 mM DTT). Cellular lysates were subjected to differential centrifugation; first the cellular homogenate was centrifuged at 14,000 rpm for 15 min, and then the supernatant was transferred to ultra-centrifugation tubes. Next the sample was ultra-centrifugated at 100,000×g for 1 hour, and the supernatant (denoted as cytosol in most biochemical literature) was subjected to 100,000×g centrifugation for 5 hours, which sedimented high molecular weight cytosolic proteins/protein complexes. The resulting pellet dissolved in 50 mM Tris Base pH 7.5, 30% Glycerol, 5 mM MgCl2, and 1 mM DTT, and 1 ug of high molecular weight protein was used as enzyme in peptidase assays.
To test the activity of TPP II we used the substrate and AAF-AMC (Sigma, St. Louis, Mo.), at 100 uM concentration in 100 ul of test buffer composed of 50 mM Tri Base pH 7.5, 5 mM MgCl2 and 1 mM DTT. To stop reactions we used dilution with 900 ul 1% SDS solution. Cleavage activity was measured by emission at 460 nm in a LS50B Luminescence Spectrometer (Perkin Elmer, Boston, Mass.).

Subtilisin = settings: bacterial homologue of the eukaryotic TPP II; cited from earlier work
TPPII [2] = biological target: T1, TPPII; experiment: Immuno-cytochemical staining of TPPII in live EL-4 cells treated with inhibitor; assay type: cell-based; set-up: endogenous in cells; host or cells: EL-4 mouse T-cell lymphoma; settings: 2 hours, 10 micro-M
Description: Immunocytochemistry. Cells were attached to glass cover slips through cytospin and fixed in acetone:methanol (1:1) for 1 hour; then the slides were rehydrated in BSS buffer for 1 hour. The first antibody was added and remained for 1 hour until a brief wash in BSS, after which a secondary conjugate (anti-rabbit-FITC) was added and incubated for 1 hour.
Then the slides were washed and stained with Hoescht 333258 for 30 min. Finally, the slides were mounted with DABCO mounting buffer and kept at 4° C. until analysis.
We performed immuno-cytochemical staining to test whether targeting of TPPII in live cells affected enzyme expression or distribution, by the use of a chicken anti-TPPII serum.

Cbz-Gly-Leu-Ala-OH [Z-GLA-OH]
anti-proliferative effect on EL-4 cells in vivo, in combination (EL-4 T-lymphoma cells): increased the anti-proliferative effects of Dexamethasone in some of the mice
cleavage of AAF-AMC, single reading (TPPII [1]; compound 1 nM): 32.54 fluorometric units and 32.61 fluorometric units and 33.41 fluorometric units
cleavage of AAF-AMC, mean (TPPII [1]; compound 1 nM): 32.85 fluorometric units
cleavage of AAF-AMC, single reading (TPPII [1]; compound 10 nM): 21.74 fluorometric units and 21.93 fluorometric units and 24.44 fluorometric units
cleavage of AAF-AMC, mean (TPPII [1]; compound 10 nM): 22.70 fluorometric units
cleavage of AAF-AMC, single reading (TPPII [1]; compound 100 nM): 14.43 fluorometric units and 14.26 fluorometric units and 14.37 fluorometric units
cleavage of AAF-AMC, mean (TPPII [1]; compound 100 nM): 14.35 fluorometric units
cleavage of AAF-AMC, single reading (TPPII [1]; compound 1 uM): 11.43 fluorometric units and 11.9 fluorometric units and 11.46 fluorometric units
cleavage of AAF-AMC, mean (TPPII [1]; compound 1 uM): 11.60 fluorometric units
cleavage of AAF-AMC, single reading (TPPII [1]; compound 10 uM): 6.47 fluorometric units and 7.66 fluorometric units and 7.49 fluorometric units
cleavage of AAF-AMC, mean (TPPII [1]; compound 10 uM): 7.21 fluorometric units
cleavage of AAF-AMC, single reading (TPPII [1]; compound 100 uM, 0 compound about 47-51): 1.14 fluorometric units and 1.44 fluorometric units and 1.55 fluorometric units
cleavage of AAF-AMC, mean (TPPII [1]; compound 100 uM): 1.38 fluorometric units
inhibition of Subtilisin (Subtilisin): found to inhibit
detection of TPPII by immuno-cytochemical staining (TPPII [2]): rapid decrease in the detection of TPPII, to almost undetectable levels
